Source: PubChem BioAssay AID1963834 (Molecular Pharmacology Branch, DTP, NCI, 2024)

System: 873145-292-R-J1-PDC complex spheroid viability
Test: Anticancer human tumor 873145-292-R-J1-PDC patient-derived renal clear cell carcinoma cell line growth inhibition [POLQ]
Settings: for IC50: curve of first compound; for viability, T/C: stronger effect = lower value
Procedure, shortened: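 Growth inhibition in 3D: complex spheroids (tumor PDC, HUVEC, MSC) treated with POLQ inhibitor combinations; where Cmax unknown, highest tested concentration 10 microM, except SN-38 at 1 microM.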

[1] = second compound 0.0316 µM, first compound 0.0316 µM
[2] = second compound 0.0316 µM, first compound 0.1 µM
[3] = second compound 0.0316 µM, first compound 0.316 µM
[4] = second compound 0.0316 µM, first compound 1 µM
[5] = second compound 0.0316 µM, first compound 3.16 µM
[6] = second compound 0.0316 µM, first compound 10 µM
[7] = second compound 0.1 µM, first compound 0.0316 µM
[8] = second compound 0.1 µM, first compound 0.1 µM
[9] = second compound 0.1 µM, first compound 0.316 µM
[10] = second compound 0.1 µM, first compound 1 µM
[11] = second compound 0.1 µM, first compound 3.16 µM
[12] = second compound 0.1 µM, first compound 10 µM
[13] = second compound 0.316 µM, first compound 0.0316 µM
[14] = second compound 0.316 µM, first compound 0.1 µM
[15] = second compound 0.316 µM, first compound 0.316 µM
[16] = second compound 0.316 µM, first compound 1 µM
[17] = second compound 0.316 µM, first compound 3.16 µM
[18] = second compound 0.316 µM, first compound 10 µM
[19] = second compound 1 µM, first compound 0.0316 µM
[20] = second compound 1 µM, first compound 0.1 µM
[21] = second compound 1 µM, first compound 0.316 µM
[22] = second compound 1 µM, first compound 1 µM
[23] = second compound 1 µM, first compound 3.16 µM
[24] = second compound 1 µM, first compound 10 µM
[25] = second compound 3.16 µM, first compound 0.0316 µM
[26] = second compound 3.16 µM, first compound 0.1 µM
[27] = second compound 3.16 µM, first compound 0.316 µM
[28] = second compound 3.16 µM, first compound 1 µM
[29] = second compound 3.16 µM, first compound 3.16 µM
[30] = second compound 3.16 µM, first compound 10 µM
[31] = second compound 10 µM, first compound 0.0316 µM
[32] = second compound 10 µM, first compound 0.1 µM
[33] = second compound 10 µM, first compound 0.316 µM
[34] = second compound 10 µM, first compound 1 µM
[35] = second compound 10 µM, first compound 3.16 µM
[36] = second compound 10 µM, first compound 10 µM
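Note: spheroids exposed to compounds for 7 days before viability readout.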
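Throughout, for viability, T/C: luminescence signal used as surrogate for viable cell content; 100% = DMSO vehicle control viability.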

`CC1COCCN1c1cc(C2(O)CC3CCC(C2)O3)c2cnn(-c3ccn[nH]3)c2n1` (stereo unspecified) + COC1C(OC(N)=O)C(O)C(Oc2ccc3c(O)c(NC(=O)c4ccc(O)c(CC=C(C)C)c4)c(=O)oc3c2C)OC1(C)C showed an IC50 (second compound 0.0316 µM) of 0.423 µM, an IC50 (second compound 0.1 µM) of 0.562 µM and an IC50 (second compound 0.316 µM) of 0.311 µM. For the same compound, the IC50 (second compound 1 µM) was 0.484 µM, the IC50 (second compound 3.16 µM) was 0.362 µM and the IC50 (second compound 10 µM) was 0.691 µM. For the same compound, the viability, T/C [1] was 90.3%, the viability, T/C [2] was 71.8% and the viability, T/C [3] was 53.9%. It also gave a viability, T/C [4] of 40.4%, a viability, T/C [5] of 38.6% and a viability, T/C [6] of 37.2%. The viability, T/C [7] was 85.8%, the viability, T/C [8] was 67.2% and the viability, T/C [9] was 57.1%. The viability, T/C [10] was 43.6%, the viability, T/C [11] was 39.3% and the viability, T/C [12] was 38.5%. For the same compound, the viability, T/C [13] was 86.3%, the viability, T/C [14] was 72.9% and the viability, T/C [15] was 50.2%. For the same compound, the viability, T/C [16] was 40.2%, the viability, T/C [17] was 49.5% and the viability, T/C [18] was 37.7%. For the same compound, the viability, T/C [19] was 84.3%, the viability, T/C [20] was 68.6% and the viability, T/C [21] was 58.5%. It also gave a viability, T/C [22] of 38.9%, a viability, T/C [23] of 36.3% and a viability, T/C [24] of 37%. For the same compound, the viability, T/C [25] was 93.8%, the viability, T/C [26] was 73.5% and the viability, T/C [27] was 52.9%. The viability, T/C [28] was 38.3%, the viability, T/C [29] was 36.2% and the viability, T/C [30] was 38.5%. The viability, T/C [31] was 87.7%, the viability, T/C [32] was 71.9% and the viability, T/C [33] was 58.3%. For the same compound, the viability, T/C [34] was 45.6%, the viability, T/C [35] was 41.6% and the viability, T/C [36] was 40.9%.
For `CC(=O)O[C@H]1C(=O)[C@@]2(C)[C@H]([C@H](OC(=O)c3ccccc3)[C@]3(O)C[C@H](OC(=O)[C@H](O)[C@@H](NC(=O)c4ccccc4)c4ccccc4)C(C)=C1C3(C)C)[C@]1(OC(C)=O)CO[C@@H]1C[C@@H]2O` + Cc1cccc(N(C)C(=O)C2C(O)CCN2c2nc(C)cc(C(F)(F)F)c2C#N)c1, the IC50 (second compound 0.0316 µM) was > 3 µM, the IC50 (second compound 0.1 µM) was > 3 µM and the IC50 (second compound 0.316 µM) was > 3 µM. For the same compound, the IC50 (second compound 1 µM) was > 3 µM, the IC50 (second compound 3.16 µM) was > 3 µM and the IC50 (second compound 10 µM) was > 3 µM. For the same compound, the viability, T/C (second compound 0.0316 µM, first compound 0.00949 µM) was 92.4%, the viability, T/C (second compound 0.0316 µM, first compound 0.03 µM) was 75.9% and the viability, T/C (second compound 0.0316 µM, first compound 0.0949 µM) was 74.7%. For the same compound, the viability, T/C (second compound 0.0316 µM, first compound 0.3 µM) was 69.1%, the viability, T/C (second compound 0.0316 µM, first compound 0.949 µM) was 72.8% and the viability, T/C (second compound 0.0316 µM, first compound 3 µM) was 74.9%. The viability, T/C (second compound 0.1 µM, first compound 0.00949 µM) was 92%, the viability, T/C (second compound 0.1 µM, first compound 0.03 µM) was 99% and the viability, T/C (second compound 0.1 µM, first compound 0.0949 µM) was 67%. For the same compound, the viability, T/C (second compound 0.1 µM, first compound 0.3 µM) was 77.7%, the viability, T/C (second compound 0.1 µM, first compound 0.949 µM) was 68.6% and the viability, T/C (second compound 0.1 µM, first compound 3 µM) was 66.3%. The viability, T/C (second compound 0.316 µM, first compound 0.00949 µM) was 94.5%, the viability, T/C (second compound 0.316 µM, first compound 0.03 µM) was 82.4% and the viability, T/C (second compound 0.316 µM, first compound 0.0949 µM) was 76.2%. For the same compound, the viability, T/C (second compound 0.316 µM, first compound 0.3 µM) was 74.1%, the viability, T/C (second compound 0.316 µM, first compound 0.949 µM) was 76.5% and the viability, T/C (second compound 0.316 µM, first compound 3 µM) was 70.3%. The viability, T/C (second compound 1 µM, first compound 0.00949 µM) was 79.7%, the viability, T/C (second compound 1 µM, first compound 0.03 µM) was 84.3% and the viability, T/C (second compound 1 µM, first compound 0.0949 µM) was 81.8%. The viability, T/C (second compound 1 µM, first compound 0.3 µM) was 77.8%, the viability, T/C (second compound 1 µM, first compound 0.949 µM) was 73.3% and the viability, T/C (second compound 1 µM, first compound 3 µM) was 69.3%. It also gave a viability, T/C (second compound 3.16 µM, first compound 0.00949 µM) of 84.7%, a viability, T/C (second compound 3.16 µM, first compound 0.03 µM) of 85.6% and a viability, T/C (second compound 3.16 µM, first compound 0.0949 µM) of 72.5%. The viability, T/C (second compound 3.16 µM, first compound 0.3 µM) was 71.5%, the viability, T/C (second compound 3.16 µM, first compound 0.949 µM) was 80.3% and the viability, T/C (second compound 3.16 µM, first compound 3 µM) was 80.4%. It also gave a viability, T/C (second compound 10 µM, first compound 0.00949 µM) of 75.4%, a viability, T/C (second compound 10 µM, first compound 0.03 µM) of 80.3% and a viability, T/C (second compound 10 µM, first compound 0.0949 µM) of 75.8%. For the same compound, the viability, T/C (second compound 10 µM, first compound 0.3 µM) was 65.9%, the viability, T/C (second compound 10 µM, first compound 0.949 µM) was 75.6% and the viability, T/C (second compound 10 µM, first compound 3 µM) was 71.2%.
With `COc1cc(C2c3cc4c(cc3C(OC3OC5COC(C)OC5C(O)C3O)C3COC(=O)C23)OCO4)cc(OC)c1O` (stereo unspecified) + Cc1cccc(N(C)C(=O)C2C(O)CCN2c2nc(C)cc(C(F)(F)F)c2C#N)c1 the IC50 (second compound 0.0316 µM) was 9.59 µM, the IC50 (second compound 0.1 µM) was > 10 µM and the IC50 (second compound 0.316 µM) was 8.71 µM. For the same compound, the IC50 (second compound 1 µM) was 8.98 µM, the IC50 (second compound 3.16 µM) was 9.5 µM and the IC50 (second compound 10 µM) was > 10 µM. It also gave a viability, T/C [1] of 97.9%, a viability, T/C [2] of 98.3% and a viability, T/C [3] of 86.8%. It also gave a viability, T/C [4] of 81.4%, a viability, T/C [5] of 68.2% and a viability, T/C [6] of 48.9%. The viability, T/C [7] was 91.2%, the viability, T/C [8] was 94.5% and the viability, T/C [9] was 87.4%. The viability, T/C [10] was 90.1%, the viability, T/C [11] was 68.9% and the viability, T/C [12] was 53.5%. It also gave a viability, T/C [13] of 99.6%, a viability, T/C [14] of 97.1% and a viability, T/C [15] of 78.5%. The viability, T/C [16] was 86.8%, the viability, T/C [17] was 68.3% and the viability, T/C [18] was 46.2%. It also gave a viability, T/C [19] of 94.6%, a viability, T/C [20] of 96.7% and a viability, T/C [21] of 95%. For the same compound, the viability, T/C [22] was 87%, the viability, T/C [23] was 68.8% and the viability, T/C [24] was 48%. It also gave a viability, T/C [25] of 98.9%, a viability, T/C [26] of 82.5% and a viability, T/C [27] of 91.1%. The viability, T/C [28] was 85.8%, the viability, T/C [29] was 74% and the viability, T/C [30] was 48.4%. For the same compound, the viability, T/C [31] was 96.7%, the viability, T/C [32] was 85.3% and the viability, T/C [33] was 81.6%. For the same compound, the viability, T/C [34] was 72.3%, the viability, T/C [35] was 60% and the viability, T/C [36] was 57.1%.
